Values of other authors as cited in US20160082159A1, “BALLOON SURFACE COATING” (priority 2013, published 2016).

Conditions: in humans

normal plasma half-life of paclitaxel: approximately 60 min
Compound: CC(=O)O[C@H]1C(=O)[C@@]2(C)[C@H]([C@H](OC(=O)c3ccccc3)[C@]3(O)C[C@H](OC(=O)[C@H](O)[C@@H](NC(=O)c4ccccc4)c4ccccc4)C(C)=C1C3(C)C)[C@]1(OC(C)=O)CO[C@@H]1C[C@@H]2O [paclitaxel]
